According to PubChem BioAssay AID1845212 (Molecular Pharmacology Branch, DTP, NCI, 2023):

test system: NCI-H719 tumor spheroids, viability; assay: Anticancer human tumor NCI-H719 cell line growth inhibition; details: second compound 0.03 µM; first compound 3.16 µM; stronger effect = lower value; spheroids with HUVEC and MSC;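 further: spheroids exposed to compounds for seven days; percent viability relative to DMSO vehicle control as 100%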
In short: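 Single agents and combinations were tested on spheroids built from tumor cells plus HUVEC and hMSC, at half-log dilutions starting at or near clinical Cmax, else 10 microM; final DMSO 0.25% (v/v).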

`[2H]c1nc(C)nc([2H])c1-c1cc(NC[C@@H](C)c2cccc3c(C(=O)NC)ccnc23)ncn1` + CC[C@@]1(O)C(=O)OCc2c1cc1n(c2=O)Cc2cc3c(CN(C)C)c(O)ccc3nc2-1 was tested, and the viability, T/C was 8.61%.

same assay, conditions: second compound 0.03 µM; first compound 10 µM; stronger effect = lower value; spheroids with HUVEC and MSC

In order of falling viability, T/C:
1. Cc1cc(C)c(CNC(=O)c2cc(-c3ccc(CN4CCOCC4)cc3)cc3c2cnn3C2CCCC2)c(=O)[nH]1 + CC[C@@]1(O)C(=O)OCc2c1cc1n(c2=O)Cc2cc3c(CN(C)C)c(O)ccc3nc2-1  16.3%
2. [2H]c1nc(C)nc([2H])c1-c1cc(NC[C@@H](C)c2cccc3c(C(=O)NC)ccnc23)ncn1 + CC[C@@]1(O)C(=O)OCc2c1cc1n(c2=O)Cc2cc3c(CN(C)C)c(O)ccc3nc2-1  8.73%
3. CC1COCCN1c1cc(-c2ccnn2C)c2ccnc(-c3ccn[nH]3)c2n1 (stereo unspecified) + CC[C@@]1(O)C(=O)OCc2c1cc1n(c2=O)Cc2cc3c(CN(C)C)c(O)ccc3nc2-1  7.48%
4. COc1cc(C)[nH]c(=O)c1CN1CCc2c(Cl)cc(C(OC)C3COC3)c(Cl)c2C1=O (stereo unspecified) + CC[C@@]1(O)C(=O)OCc2c1cc1n(c2=O)Cc2cc3c(CN(C)C)c(O)ccc3nc2-1  7.28%
5. CC(C)n1c(=O)n(C)c2cnc3cc(F)c(-c4ccc(OCCCN5CCCCC5)nc4)cc3c21 + CC[C@@]1(O)C(=O)OCc2c1cc1n(c2=O)Cc2cc3c(CN(C)C)c(O)ccc3nc2-1  6.27%
6. COc1ccc([C@@H](O)c2cc(-c3ncnc4cc(N5CCOCC5)ccc34)c(F)cc2Cl)nn1 + CC[C@@]1(O)C(=O)OCc2c1cc1n(c2=O)Cc2cc3c(CN(C)C)c(O)ccc3nc2-1  3.08%

same assay, conditions: second compound 0.0949 µM; first compound 0.0316 µM; stronger effect = lower value; spheroids with HUVEC and MSC

In order of falling viability, T/C:
1. COc1cc(C)[nH]c(=O)c1CN1CCc2c(Cl)cc(C(OC)C3COC3)c(Cl)c2C1=O (stereo unspecified) + CC[C@@]1(O)C(=O)OCc2c1cc1n(c2=O)Cc2cc3c(CN(C)C)c(O)ccc3nc2-1  8.78%
2. [2H]c1nc(C)nc([2H])c1-c1cc(NC[C@@H](C)c2cccc3c(C(=O)NC)ccnc23)ncn1 + CC[C@@]1(O)C(=O)OCc2c1cc1n(c2=O)Cc2cc3c(CN(C)C)c(O)ccc3nc2-1  7.9%
3. CC(C)n1c(=O)n(C)c2cnc3cc(F)c(-c4ccc(OCCCN5CCCCC5)nc4)cc3c21 + CC[C@@]1(O)C(=O)OCc2c1cc1n(c2=O)Cc2cc3c(CN(C)C)c(O)ccc3nc2-1  7.12%
4. COc1ccc([C@@H](O)c2cc(-c3ncnc4cc(N5CCOCC5)ccc34)c(F)cc2Cl)nn1 + CC[C@@]1(O)C(=O)OCc2c1cc1n(c2=O)Cc2cc3c(CN(C)C)c(O)ccc3nc2-1  6.51%
5. CC1COCCN1c1cc(-c2ccnn2C)c2ccnc(-c3ccn[nH]3)c2n1 (stereo unspecified) + CC[C@@]1(O)C(=O)OCc2c1cc1n(c2=O)Cc2cc3c(CN(C)C)c(O)ccc3nc2-1  5.89%
6. Cc1cc(C)c(CNC(=O)c2cc(-c3ccc(CN4CCOCC4)cc3)cc3c2cnn3C2CCCC2)c(=O)[nH]1 + CC[C@@]1(O)C(=O)OCc2c1cc1n(c2=O)Cc2cc3c(CN(C)C)c(O)ccc3nc2-1  5.7%

same assay, conditions: second compound 0.0949 µM; first compound 0.1 µM; stronger effect = lower value; spheroids with HUVEC and MSC

In order of falling viability, T/C:
1. COc1cc(C)[nH]c(=O)c1CN1CCc2c(Cl)cc(C(OC)C3COC3)c(Cl)c2C1=O (stereo unspecified) + CC[C@@]1(O)C(=O)OCc2c1cc1n(c2=O)Cc2cc3c(CN(C)C)c(O)ccc3nc2-1  7.8%
2. [2H]c1nc(C)nc([2H])c1-c1cc(NC[C@@H](C)c2cccc3c(C(=O)NC)ccnc23)ncn1 + CC[C@@]1(O)C(=O)OCc2c1cc1n(c2=O)Cc2cc3c(CN(C)C)c(O)ccc3nc2-1  7.8%
3. COc1ccc([C@@H](O)c2cc(-c3ncnc4cc(N5CCOCC5)ccc34)c(F)cc2Cl)nn1 + CC[C@@]1(O)C(=O)OCc2c1cc1n(c2=O)Cc2cc3c(CN(C)C)c(O)ccc3nc2-1  7.08%
4. CC(C)n1c(=O)n(C)c2cnc3cc(F)c(-c4ccc(OCCCN5CCCCC5)nc4)cc3c21 + CC[C@@]1(O)C(=O)OCc2c1cc1n(c2=O)Cc2cc3c(CN(C)C)c(O)ccc3nc2-1  6.79%
5. Cc1cc(C)c(CNC(=O)c2cc(-c3ccc(CN4CCOCC4)cc3)cc3c2cnn3C2CCCC2)c(=O)[nH]1 + CC[C@@]1(O)C(=O)OCc2c1cc1n(c2=O)Cc2cc3c(CN(C)C)c(O)ccc3nc2-1  5.83%
6. CC1COCCN1c1cc(-c2ccnn2C)c2ccnc(-c3ccn[nH]3)c2n1 (stereo unspecified) + CC[C@@]1(O)C(=O)OCc2c1cc1n(c2=O)Cc2cc3c(CN(C)C)c(O)ccc3nc2-1  5.72%

same assay, conditions: second compound 0.0949 µM; first compound 0.316 µM; stronger effect = lower value; spheroids with HUVEC and MSC

In order of rising viability, T/C:
1. CC1COCCN1c1cc(-c2ccnn2C)c2ccnc(-c3ccn[nH]3)c2n1 (stereo unspecified) + CC[C@@]1(O)C(=O)OCc2c1cc1n(c2=O)Cc2cc3c(CN(C)C)c(O)ccc3nc2-1  4.2%
2. Cc1cc(C)c(CNC(=O)c2cc(-c3ccc(CN4CCOCC4)cc3)cc3c2cnn3C2CCCC2)c(=O)[nH]1 + CC[C@@]1(O)C(=O)OCc2c1cc1n(c2=O)Cc2cc3c(CN(C)C)c(O)ccc3nc2-1  5.84%
3. COc1ccc([C@@H](O)c2cc(-c3ncnc4cc(N5CCOCC5)ccc34)c(F)cc2Cl)nn1 + CC[C@@]1(O)C(=O)OCc2c1cc1n(c2=O)Cc2cc3c(CN(C)C)c(O)ccc3nc2-1  5.96%
4. CC(C)n1c(=O)n(C)c2cnc3cc(F)c(-c4ccc(OCCCN5CCCCC5)nc4)cc3c21 + CC[C@@]1(O)C(=O)OCc2c1cc1n(c2=O)Cc2cc3c(CN(C)C)c(O)ccc3nc2-1  7.51%
5. COc1cc(C)[nH]c(=O)c1CN1CCc2c(Cl)cc(C(OC)C3COC3)c(Cl)c2C1=O (stereo unspecified) + CC[C@@]1(O)C(=O)OCc2c1cc1n(c2=O)Cc2cc3c(CN(C)C)c(O)ccc3nc2-1  7.84%
6. [2H]c1nc(C)nc([2H])c1-c1cc(NC[C@@H](C)c2cccc3c(C(=O)NC)ccnc23)ncn1 + CC[C@@]1(O)C(=O)OCc2c1cc1n(c2=O)Cc2cc3c(CN(C)C)c(O)ccc3nc2-1  7.91%

same assay, conditions: second compound 0.0949 µM; first compound 1 µM; stronger effect = lower value; spheroids with HUVEC and MSC

For `CC(C)n1c(=O)n(C)c2cnc3cc(F)c(-c4ccc(OCCCN5CCCCC5)nc4)cc3c21` + CC[C@@]1(O)C(=O)OCc2c1cc1n(c2=O)Cc2cc3c(CN(C)C)c(O)ccc3nc2-1, the viability, T/C was 7.66%.
